Reference: the Kinase Knowledgebase extract (Sharma et al. 2016)

What follows are compounds tested against MAPK14;MAPK11;MAPK12;MAPK13 (human) (UniProt Q16539) (assay: Assessment of MAPK11/MAPK12/MAPK13/MAPK14 Kinase Activity).

Row | SMILES | IC50 [nM]
1 | Cc1ccc(C(=O)Nc2ccnn2C)cc1-c1ccn2c(-c3cccc(F)c3Cl)nnc2c1 | < 25
2 | Cc1ccc(C(=O)Nc2ccnn2C)cc1-c1ccn2c(-c3cc(F)ccc3Cl)nnc2c1 | < 25
3 | Cc1ccc(C(=O)NC2CC2)cc1-c1ccn2c(C3CCOCC3)nnc2c1 | < 25
4 | Cc1ccc(C(=O)Nc2ccnn2C)cc1-c1ccn2c(-c3cc(F)c(F)cc3Cl)nnc2c1 | < 25
5 | Cc1c(F)cc(C(=O)NC2CC2)cc1-c1ccn2c(-c3ccncc3Cl)nnc2c1 | < 25
6 | Cc1ccc(C(=O)NC2CC2)cc1-c1ccn2c(N3CCCC3)nnc2c1 | < 25
7 | Cc1ccc(C(=O)NC2CC2)cc1-c1ccn2c(C34C[C@H]5C[C@@H](C3)C[C@@H](C4)C5)nnc2c1 | < 25
8 | Cc1ccc(C(=O)NC2CC2)cc1-c1ccn2c(-c3ccccc3C(F)(F)F)nnc2c1 | < 25
9 | Cc1ccc(C(=O)NC2CC2)cc1-c1ccn2c(-c3ccccc3C)nnc2c1 | < 25
10 | Cc1ccc(C(=O)NC2CC2)cc1-c1ccn2c(-c3cc(F)c(F)cc3Cl)nnc2c1 | < 25
11 | Cc1ccc(C(=O)Nc2ccon2)cc1-c1ccn2c(-c3c(F)cccc3F)nnc2c1 | < 25
12 | Cc1ccc(C(=O)NC2CC2)cc1-c1ccn2c(C(C)C)nnc2c1 | < 25
13 | Cc1ccc(C(=O)Nc2ccnn2C)cc1-c1ccn2c(-c3ccccc3Cl)ncc2c1 | < 25
14 | Cc1ccc(C(=O)NC2CC2)cc1-c1ccn2c(-c3cc(F)ccc3Cl)nnc2c1 | < 25
15 | Cc1ncoc1-c1nnc2cc(-c3cc(C(=O)NC4CC4)cc(F)c3C)ccn12 | < 25
16 | Cc1ccc(C(=O)NC2CC2)cc1-c1ccn2c(-c3ccc(F)cc3Cl)nnc2c1 | < 25
17 | Cc1ccc(C(=O)NC2CC2)cc1-c1ccn2c(-c3ccc(F)cc3C)nnc2c1 | < 25
18 | Cc1ccc(C(=O)NC2CC2)cc1-c1ccn2c(-c3c(C)cccc3F)nnc2c1 | < 25
19 | COc1ccccc1-c1nnc2cc(-c3cc(C(=O)NC4CC4)ccc3C)ccn12 | < 25
20 | Cc1ccc(C(=O)NC2CC2)cc1-c1ccn2c(NC(C)C)nnc2c1 | < 25
21 | Cc1ccc(C(=O)NC2CC2)cc1-c1ccn2c(-c3ccccc3Cl)nnc2c1 | < 25
22 | Cc1cccc(F)c1-c1nnc2cc(-c3cc(C(=O)NC4CC4)cc(F)c3C)ccn12 | < 25
23 | Cc1ccc(C(=O)Nc2ccnn2C)cc1-c1ccn2c(-c3ccccc3Cl)nnc2c1 | < 25
24 | Cc1ccc(C(=O)Nc2ccnn2C)cc1-c1ccn2c(-c3cnccc3C(F)(F)F)ncc2c1 | < 25

Row | SMILES | IC50 [nM]
25 | Cc1ccc(C(=O)Nc2ccnn2C)cc1-c1ccn2c(-c3ccccc3F)nnc2c1 | < 25
26 | Cc1ccc(C(=O)Nc2ccnn2C)cc1-c1ccn2c(C(C)C)nnc2c1 | < 25
27 | Cc1ccc(C(=O)NC2CC2)cc1-c1ccn2c(C3CCCCC3)nnc2c1 | < 25
28 | Cc1ccc(C(=O)NC2CC2)cc1-c1ccn2c(C3(C(F)(F)F)CC3)nnc2c1 | < 25
29 | Cc1ccc(C(=O)NC2(C)CC2)cc1-c1ccn2c(-c3ccccc3Cl)nnc2c1 | < 25
30 | Cc1ccc(C(=O)Nc2ccnn2C)cc1-c1ccn2c(-c3ccc(F)cc3C)nnc2c1 | < 25
31 | Cc1ccc(C(=O)NC2CC2)cc1-c1ccn2c(C3CCCC3)nnc2c1 | < 25
32 | Cc1ccc(C(=O)Nc2ccnn2C)cc1-c1ccn2c(-c3ccc(F)cc3Cl)nnc2c1 | < 25
33 | Cc1ccc(C(=O)NC2CC2)cc1-c1cc(C)n2c(-c3ccccc3Cl)nnc2c1 | < 25
34 | Cc1ccc(C(=O)NC2CC2)cc1-c1ccn2c(N3CCCCC3)nnc2c1 | < 25
35 | Cc1ccc(C(=O)NC2CC2)cc1-c1ccn2c(Nc3ccccc3)nnc2c1 | < 25
36 | Cc1ccc(C(=O)NC2CC2)cc1-c1ccn2c(-c3sccc3Cl)nnc2c1 | < 25
37 | Cc1ccc(C(=O)Nc2ccnn2C)cc1-c1ccn2c(-c3sccc3C)nnc2c1 | < 25
38 | Cc1ccc(C(=O)Nc2ccnn2C)cc1-c1ccn2c(C3(C(F)(F)F)CC3)nnc2c1 | < 25
39 | Cc1c(F)cc(C(=O)NC2CC2)cc1-c1ccn2c(C(C)(C)C)nnc2c1 | < 25
40 | Cc1ccc(C(=O)NC2CC2)cc1-c1ccn2c(-c3ccc(F)cc3C)ncc2c1 | < 25
41 | Cc1ccc(C(=O)NC2CC2)cc1-c1ccn2c(-c3c(Cl)cccc3Cl)nnc2c1 | < 25
42 | Cc1ccccc1-c1nnc2cc(-c3cc(C(=O)NC4CC4)cc(F)c3C)ccn12 | < 25
43 | Cc1c(F)cc(C(=O)NC2CC2)cc1-c1ccn2c(-c3ccccc3Cl)nnc2c1 | < 25
44 | Cc1ccc(C(=O)NC2CC2)cc1-c1ccn2c(CC(C)(C)C)nnc2c1 | < 25
45 | Cc1ccc(C(N)=O)cc1-c1ccn2c(-c3ccccc3Cl)nnc2c1 | < 25
46 | Cc1c(F)cc(C(=O)NC2CC2)cc1-c1ccn2c(-c3ccccc3C(F)(F)F)nnc2c1 | < 25
47 | CCc1ccccc1-c1nnc2cc(-c3cc(C(=O)NC4CC4)ccc3C)ccn12 | < 25
48 | Cc1ccc(C(=O)Nc2ccnn2C)cc1-c1ccn2c(-c3cc(F)cc(F)c3)ncc2c1 | < 25

Row | SMILES | IC50 [nM]
49 | Cc1ccc(C(=O)NC2CC2)cc1-c1ccn2c(-c3ccccc3)nnc2c1 | < 25
50 | Cc1ccc(C(=O)NC2CC2)cc1-c1ccn2c(-c3ccccc3F)nnc2c1 | < 25
51 | Cc1ccc(C(=O)NC2CC2)cc1-c1ccn2c(-c3c(F)cccc3C(F)(F)F)nnc2c1 | < 25
52 | Cc1c(F)cc(C(=O)NC2CC2)cc1-c1ccn2c(-c3c(Cl)cccc3Cl)nnc2c1 | < 25
53 | Cc1ccc(C(=O)NC2CC2)cc1-c1ccn2c(-c3c(C)cccc3Cl)nnc2c1 | < 25
54 | Cc1cc(F)c(C(=O)NC2CC2)cc1-c1ccn2c(-c3ccccc3Cl)nnc2c1 | < 25
55 | Cc1c(F)cc(C(=O)NC2CC2)cc1-c1ccn2c(-c3c(F)cccc3Cl)nnc2c1 | < 25
56 | Cc1cccc(Cl)c1-c1nnc2cc(-c3cc(C(=O)NC4CC4)cc(F)c3C)ccn12 | < 25
57 | Cc1c(F)cc(C(=O)NC2CC2)cc1-c1ccn2c(-c3c(F)cccc3F)nnc2c1 | < 25
58 | Cc1ccc(C(=O)NC2CC2)cc1-c1ccn2c(C(C)(C)C)nnc2c1 | < 25
59 | Cc1ccc(C(=O)NC2CC2)cc1-c1ccn2c(-c3ccc(S(C)(=O)=O)cc3Cl)nnc2c1 | < 25
60 | Cc1ccc(C(=O)Nc2ccnn2C)cc1-c1ccn2c(-c3ccc(F)cc3C)ncc2c1 | < 25
61 | Cc1ccc(C(=O)Nc2ccnn2C)cc1-c1cc2nnc(-c3ccccc3Cl)n2cc1C | < 25
62 | CCNC(=O)c1ccc(C)c(-c2ccn3c(-c4ccccc4Cl)nnc3c2)c1 | < 25
63 | Cc1ccc(C(=O)NC2CC2)cc1-c1ccn2c(-c3cccc(F)c3Cl)nnc2c1 | < 25
64 | Cc1ccc(C(=O)NC2CC2)cc1-c1ccn2c(-c3ccncc3Cl)nnc2c1 | < 25
65 | Cc1ccc(C(=O)NC2CC2)cc1-c1ccn2c(C3CC3)nnc2c1 | < 25
66 | Cc1ccc(C(=O)NC2CC2)cc1-c1ccn2c(-c3sccc3C)nnc2c1 | < 25
67 | Cc1ccc(C(=O)NC2CC2)cc1-c1ccn2c(-c3c(F)cccc3Cl)nnc2c1 | < 25
68 | Cc1c(F)cc(C(=O)Nc2ccon2)cc1-c1ccn2c(-c3c(F)cccc3F)nnc2c1 | < 25
69 | Cc1ccc(C(=O)NC2CC2)cc1-c1ccn2c(N(C)c3ccccc3)nnc2c1 | < 25
70 | Cc1ccc(C(=O)NC2CC2)cc1-c1cc2nnc(-c3ccccc3Cl)n2cc1C | < 25
71 | Cc1ccc(C(=O)NC2CC2)cc1-c1ccn2c(Cc3ccccc3)nnc2c1 | < 25
